Measurements as given in ChEMBL document CHEMBL5390218, “Benzimidazole derivatives as tubulin polymerization inhibitors: Design, synthesis and in vitro cytotoxicity studies” (Bioorg Med Chem Lett, 2023).
Active and inactive are the calls of the source. The calls are words filed in the database; no cut-off is given here.

How the values were obtained:
SK-MEL-28 [1] = experiment: Induction of mitochondrial membrane potential depolarization in human SK-MEL-28 cells assessed as J-monomer level by measuring green fluorescence intensity at 1 uM incubated for 48 hrs by JC-1 staining based analysis (reference value: 0.8%); type: functional
SK-MEL-28 [2] = experiment: Induction of morphological changes in human SK-MEL-28 cells assessed as nuclear shrinkage at 1 to 5 uM measured after 48 hrs DAPI staining based analysis; type: functional, cell-based; details: dose 1-5 µM
SK-MEL-28 [3] = experiment: Induction of apoptosis in human SK-MEL-28 cells assessed as late apoptotic cells at 2.5 uM incubated for 24 hrs by Annexin V-FITC/PI dual staining based flow cytometry analysis (reference value: 0.1%); type: functional
[4] = Selectivity index, ratio of IC50 for NRK-52E cells to ratio of IC50 for human SK-MEL-28 cells
Tubulin (Homo sapiens) [5] = molecular target: T1, Tubulin (Homo sapiens) (UniProt P68371+Q9H4B7+P0DPH7+P68366+Q13509+Q71U36+P04350+Q3ZCM7+P07437+P68363+Q9BQE3+Q6PEY2+Q13885+Q9BVA1+Q9BUF5); experiment: Inhibition of tubulin polymerization (unknown origin) at 0.75 uM incubated for 1 hr relative to control; type: protein-complex assay
SK-MEL-28 [6] = experiment: Induction of cell cycle arrest in human SK-MEL-28 cells assessed as accumulation of cells at S phase at 2.5 uM measured after 48 hrs by PI staining based flow cytometry (reference value: 16.5%); type: functional
SK-MEL-28 [7] = experiment: Induction of mitochondrial membrane potential changes in human SK-MEL-28 cells assessed as J-aggregate level by measuring red fluorescence intensity at 5 uM incubated for 48 hrs by JC-1 staining based analysis (reference value: 98.9%); type: functional
[8] = Selectivity index, ratio of IC50 for NRK-52E cells to ratio of IC50 for human HCT-116 cells; type: toxicity; details: rat (NRK-52E), NRK-52E cells versus HCT-116 cells, read-out: Selectivity Index
SK-MEL-28 [9] = experiment: Induction of ROS generation in human SK-MEL-28 cells by DCFDA staining based analysis; type: functional, cell-based; details: dose 1-5 µM
[10] = Selectivity index, ratio of IC50 for NRK-52E cells to ratio of IC50 for mouse B16-F10 cells; type: toxicity; details: NRK-52E cells versus B16-F10 cells, read-out: Selectivity Index
SK-MEL-28 [11] = experiment: Induction of apoptosis in human SK-MEL-28 cells assessed as live cells at 5 uM incubated for 24 hrs by Annexin V-FITC/PI dual staining based flow cytometry analysis (reference value: 99.9%); type: functional
SK-MEL-28 [12] = experiment: Inhibition of colony formation in human SK-MEL-28 cells incubated for 48 hrs by crystal violet staining based colony formation assay; type: functional, cell-based; details: dose 1-5 µM
SK-MEL-28 [13] = experiment: Induction of morphological changes in human SK-MEL-28 cells assessed as chromatin condensation at 1 to 5 uM measured after 48 hrs DAPI staining based analysis; type: functional, cell-based; details: dose 1-5 µM
[14] = Cytotoxicity against NRK-52E cells assessed as inhibition in cell growth measured after 72 hrs by MTT assay; type: toxicity, cell-based; details: rat
Tubulin (Homo sapiens) [15] = molecular target: T1, Tubulin (Homo sapiens); experiment: Inhibition of tubulin polymerization (unknown origin) at 12 uM incubated for 1 hr relative to control; type: protein-complex assay
B16-F10 = experiment: Anticancer activity against mouse B16-F10 cells assessed as inhibition in cell growth measured after 72 hrs by MTT assay; type: functional, cell-based; details: B16-F10, 72 h
MCF7 = experiment: Anticancer activity against human MCF7 cells assessed as inhibition in cell growth measured after 72 hrs by MTT assay; type: functional, cell-based; details: MCF7, 72 h
SK-MEL-28 [16] = experiment: Induction of mitochondrial membrane potential changes in human SK-MEL-28 cells assessed as J-aggregate level by measuring red fluorescence intensity at 1 uM incubated for 48 hrs by JC-1 staining based analysis (reference value: 98.9%); type: functional
[17] = Selectivity index, ratio of IC50 for NRK-52E cells to ratio of IC50 for human A549 cells; type: toxicity; details: rat (NRK-52E), NRK-52E cells versus A549 cells, read-out: Selectivity Index
SK-MEL-28 [18] = experiment: Induction of cell cycle arrest in human SK-MEL-28 cells assessed as accumulation of cells at G2 phase at 2.5 uM measured after 48 hrs by PI staining based flow cytometry (reference value: 9.17%); type: functional
SK-MEL-28 [19] = experiment: Induction of morphological changes in human SK-MEL-28 cells assessed as appearance of nuclei at 1 to 5 uM measured after 48 hrs DAPI staining based analysis; type: functional, cell-based; details: dose 1-5 µM
SK-MEL-28 [20] = experiment: Induction of apoptosis in human SK-MEL-28 cells assessed as early apoptotic cells at 2.5 uM incubated for 24 hrs by Annexin V-FITC/PI dual staining based flow cytometry analysis (reference value: 0.0%); type: functional
Tubulin (Homo sapiens) [21] = molecular target: T1, Tubulin (Homo sapiens); experiment: Inhibition of tubulin polymerization (unknown origin) at 1.5 uM incubated for 1 hr relative to control; type: protein-complex assay

- inhibition (Tubulin (Homo sapiens) [5]): 20.4%
- inhibition (Tubulin (Homo sapiens) [15]): 64.1%
- IC50 (B16-F10): 3.1 µM
- IC50 (MCF7): 17.9 µM
- inhibition (Tubulin (Homo sapiens) [21]): 35.1%
SMILES: COc1cc(-c2nc3cc(F)ccc3[nH]2)ccc1OCC(=O)N1CCc2ccccc21
- Activity (SK-MEL-28 [1]): 2%
- Activity (SK-MEL-28 [2]): Active
- Activity (SK-MEL-28 [3]): 20.2%
- Selectivity Index [4]: 20
- Activity (SK-MEL-28 [6]): 23.71%
- Activity (SK-MEL-28 [7]): 85.1%
- selectivity ratio [8]: 7.7
- Activity (SK-MEL-28 [9]): Dose-Dependent Effect
- selectivity ratio [10]: 17.4
- Activity (SK-MEL-28 [11]): 50.7%
- inhibition (SK-MEL-28 [12]): Dose-Dependent Effect
- Activity (SK-MEL-28 [13]): Active
- IC50 at 72 h [14]: 53.8 µM
- Activity (SK-MEL-28 [16]): 97.9%
- selectivity ratio [17]: 14
- Activity (SK-MEL-28 [18]): 24.82%
- Activity (SK-MEL-28 [19]): Active
- Activity (SK-MEL-28 [20]): 26.4%
